Consider 6 molecules from patent publication US5219732A, “Antibody-mediated cofactor-driven reactions” (priority 1990, dated 1993).

Format in all cases: biochemical
The test system of assay [1] is monoclonal antibody 7G12-A10-G1-A12 elicited against N-methyl mesoporphyrin (NMMP). In words: Inhibition of antibody-catalyzed chelation of metal ions by mesoporphyrin IX. To be noted: inhibition of the antibody's catalytic ability (metal chelation by mesoporphyrin IX); read-out: inhibition constant (Ki). An excerpt:
N-Methyl mesoporphyrin (NMMP), a commercially available species obtained from Porphyrin Products, Logan, Utah, having the formula [drawing 3] was conjugated to a carrier protein by treatment of the NMMP with N-hydroxysuccinimide (NHS) and dicyclohexylcarbodiimide, followed by addition of the resulting NHS ester to a solution of the protein. Monoclonal antibodies were elicited in accordance with conventional procedures known to those skilled in the art, and purified by Protein A affinity chromatography.
The inhibition constant (Ki) for the iron(III)mesoporphyrin was less than 10 nM. The term "mesoporphyrin" is used here as an abbreviation for the more complete term "mesoporphyrin IX," and the abbreviations "MP" and "MPIX" are used interchangeably to refer to this species. Thus, "Fe(III)-mesoporphyrin," "iron(III)mesoporphyrin" and "Fe(III)MPIX" are equivalent, and "N-methyl nesoporphyrin," "NMMP" and "N-MeMPIX" and likewise equivalent.

Assay [2] concerns antibody 7G12-A10-G1-A12-mesohemin (Fe(III)mesoporphyrin) complex. The assay can be described thus: Peroxidation of chromogenic peroxidase substrates with H2O2 catalyzed by antibody-mesohemin complex. The procedure:
In further experiments, this antibody was used in the presence of H2 O2 to catalyze the oxidation of the following group of typical chromogenic peroxidase substrates: [drawing 7] Reaction mixtures contained 1 mM reducing substrate, 5 mM hydrogen peroxide, 0.5 mM Fe(III)mesoporphyrin chloride (mesohemin), 0.5% w/v Triton X-100, 4% v/v dimethyl sulfoxide (DMSO), and 90 mM tris acetate, pH 8.0, and were incubated at 10° C. Antibody samples contained 0.2 mg/mL (1.3 μM) protein.
The monitored wavelength and Δε value for each reaction, and the plot in FIG. 2 showing the corresponding absorption curves for each comparison are as follows:
The rate of o-dianisidine oxidation was examined at several o-dianisidine concentrations, ranging from 0.05 mM to 2.5 mM, using 10 mM H2 O2 in each case and other reaction conditions as described above. The initial rate of peroxidation v is shown in FIG. 3 as a function of o-dianisidine concentration for both reactions catalyzed by mesohemin alone (open squares) and reactions catalyzed by the antibody-mesohemin complex (filled squares).
Saturation kinetics for the o-dianisidine peroxidation reaction were determined at an o-dianisidine concentration of 0.6 mM, with the remaining reaction conditions as described above. Lineweaver-Burk plots are shown in FIG. 4 for both free mesohemin (open squares) and antibody-mesohemin complex (filled squares) as a function of H2 O2 concentrations. The rates shown are based on an estimated molar extinction coefficient (ε) of 7500 for oxidized o-dianisidine.

Assay [3] deals with antibody (elicited against pyridoxal/p-nitrophenylalanine Schiff base analog hapten) which enhanced the bimolecular condensation reaction. The assay can be described thus: Inhibition by hapten of the transamination between p-nitrophenylpyruvic acid and pyridoxamine. To be noted: 100 μM of the hapten. The procedure:
(§1) A hapten was formed by first reacting pyridoxal with p-nitrophenylalanine in the presence of aqueous NaBH4 at pH 8.5 to form a stable Schiff base analog. The latter was then treated with thiourea in 48% HBr followed by aqueous ammonium hydroxide to form the disulfide dimer, which was then reduced and subjected to disulfide exchange with a carrier protein to yield a hapten-protein conjugate in which the hapten was the Schiff base analog.
(§2) Antibodies were elicited against the conjugate in accordance with conventional procedures, and seven antibodies specifically binding to the hapten itself were selected. Inhibition tests were conducted in which p-nitrophenylalanine and pyridoxamine individually were contacted with the antibodies to determine whether or not binding between the antibodies and the hapten-protein conjugate was inhibited in an ELISA assay.
(§3) The same seven antibodies were then used in the transamination reaction between p-nitrophenylpyruvic acid and pyridoxamine to form p-nitrophenylalanine. Reactions were performed in two separate buffer solutions, using 1 mM each of p-nitrophenylpyruvic acid and pyridoxamine, 10 μM antibody (IgG) and 250 μM m-nitrobenzylalcohol as an internal standard in each case. The first buffer solution consisted of 10 mM phosphate and 150 mM NaCl at pH 7.5, and the second consisted of 100 mM imidazole and 100 mM NaCl at pH 7.0.

In assay [4] the test system is antibody (elicited against pyridoxal/p-nitrophenylalanine Schiff base analog hapten) which resulted in the highest rate of amino acid production in the …. Described as above. As to conditions: 100 μM of the hapten. The protocol: as §1, §2, §3
Assay [5] relates to antibody 7G12-A10-G1-A12 plus 1 μM Fe(III)-mesoporphyrin. The assay can be described thus: Oxidation of pyrogallol, absorption at 420 nm monitored over time (FIG. 1). As to conditions: 5 μM NMMP. The protocol: In one experiment, the antibody was used for oxidation of pyrogallol as determined spectrometrically by monitoring […]. The reaction was as follows: [drawing 6] The product has a maximum absorption at 420 nm.
(a) 1 μM Fe(III)-mesoporphyrin only;
(c) the antibody plus 1 μM Fe(III)-mesoporphyrin and 5 μM NMMP; and
(d) the antibody plus 1 μM Fe(III)-mesoporphyrin only.

The mark [6] stands for this setting: peroxidation of the named reducing substrate by the antibody-mesohemin complex.

Consider iron(III)mesoporphyrin, for which, in assay [1], the Ki was less than 0.01 µM.

On to `CCn1c(=NN=c2sc3cc(S(=O)(=O)O)ccc3n2CC)sc2cc(S(=O)(=O)O)ccc21` [2,2'-azinobis(3-ethylbenzothiazoline-6-sulfonic acid)], for which, in assay [2] (setting [6]), the “Kcat /Km” value was found to be 233 M⁻¹ s⁻¹.

With `Cc1ncc(CO)c(CNC(Cc2ccc([N+](=O)[O-])cc2)C(=O)O)c1O` (stereo not shown) [Schiff base analog], the inhibition of transamination result in assay [3] and in assay [4] was “noticeably inhibited” throughout.

In the case of `Oc1cccc(O)c1O` [pyrogallol], the “Kcat /Km” value in assay [2] (setting [6]) worked out at 122 M⁻¹ s⁻¹.

As to N-Methyl mesoporphyrin [NMMP], the “effect of NMMP on the pyrogallol oxidation rate” value in assay [5] was “destroying the catalytic effect”. Further, the “effect of hapten on antibody catalysis of peroxidation” value in assay [2] (hapten in a stoichiometric amount relative to antibody binding sites, each of the four reactions) was “completely blocked antibody catalysis”.

Take `OO` [H2 O2, hydrogen peroxide]: the Km in assay [2] (o-dianisidine peroxidation, 0.6 mM o-dianisidine, H2O2 concentration varied (Lineweaver-Burk, FIG. 4), pH 8.0, 10° C.) was 24 mM. The “Kcat /Km” value in assay [2] (o-dianisidine peroxidation, 0.6 mM o-dianisidine, H2O2 concentration varied, pH 8.0, 10° C.) is 274 m^-1 s^-1. The kcat in assay [2] (o-dianisidine peroxidation, 0.6 mM o-dianisidine, H2O2 concentration varied, pH 8.0, 10° C., ε estimated 7500) was 6.57 s⁻¹.
